Measurements published in ChEMBL document CHEMBL1124742 (J Med Chem, 1990).

Columns and labels:
P388 [1] = assay: In vivo percentage increase in lifespan of drug treated tumor-bearing mice at a dose of 225 mg/kg; assay type: functional; conditions: Mus musculus
UV4 [2] = assay: In vitro cytotoxicity against transformed chinese hamster fibroblast line UV4.; assay type: functional, cell-based; conditions: Cricetulus griseus
P388 [3] = assay: Tested for the in vitro cytotoxicity against P388 murine leukemia; assay type: cell-based; conditions: Mus musculus
CHO-AA8 [4] = assay: (§1) Tested for the in vitro cytotoxicity against transformed chinese hamster fibroblast line AA8; assay type: cell-based; conditions: Cricetulus griseus
P388 [5] = assay: Optimal dose of drug administered as a single dose in 0.1 or 0.2 mL of 30% v/v ethanol/water on day one after ip inoculation of 10e6 P388 leukemia cells; assay type: functional, Mus musculus
Cricetulus griseus = organism: Cricetulus griseus; assay: Hypersensitivity factor(HF) was determined from the ratio of IC50(AA8) / IC50(UV4); assay type: functional
P388 [6] = assay: In vitro cytotoxicity against P388 murine leukemia; assay type: functional, cell-based; conditions: Mus musculus
[7] = Evaluated for the mustard reactivity by determining rate constant for hydrolysis of mustard in aqueous acetone (K H); assay type: ADME; conditions: buffer
CHO-AA8 [8] = assay: In vitro cytotoxicity against transformed chinese hamster fibroblast line AA8; assay type: functional, cell-based; conditions: Cricetulus griseus
P388 [9] = assay: In vivo percentage increase in lifespan of drug treated tumor-bearing mice at a dose of 13.3 mg/kg; assay type: functional; conditions: Mus musculus
[10] = Evaluated for the mustard reactivity by determining rate constant for alkylation of 4-(4-nitrobenzyl)pyridine using NBP alkylation assay; assay type: ADME
P388 [11] = assay: In vivo percentage increase in lifespan of drug treated tumor-bearing mice at a dose of 45 mg/kg; assay type: functional; conditions: Mus musculus
UV4 [12] = assay: Tested for the in vitro cytotoxicity against transformed chinese hamster fibroblast line UV4.; assay type: functional, cell-based; conditions: Cricetulus griseus
CHO-AA8 [13] = assay: as §1; assay type: functional, cell-based; conditions: Cricetulus griseus
P388 [14] = assay: In vivo percentage increase in lifespan of drug treated tumor-bearing mice at a dose of 20 mg/kg; assay type: functional; conditions: Mus musculus

| SMILES | ILS at 225 mg/kg (P388 [1]) [%] | IC50 (UV4 [2]) [nM] | IC50 (P388 [3]) [nM] | IC50 (CHO-AA8 [4]) [nM] | OD (P388 [5]) [mg/kg] | Ratio (Cricetulus griseus) | IC50 (P388 [6]) [nM] | K H [7] [s⁻¹] | IC50 (CHO-AA8 [8]) [nM] | ILS at 13.3 mg/kg (P388 [9]) [%] | K NBP [10] [s⁻¹] | ILS at 45 mg/kg (P388 [11]) [%] | IC50 (UV4 [12]) [nM] | IC50 (CHO-AA8 [13]) [nM] | ILS at 20 mg/kg (P388 [14]) [%] |
| --- | --- | --- | --- | --- | --- | --- | --- | --- | --- | --- | --- | --- | --- | --- | --- |
| O=C(O)CCCc1ccc(N(CCCl)CCCl)cc1 [CHLORAMBUCIL] | 37 | 600 | 6750 | 26000 | 225 | 58 | – | – | – | – | – | – | – | – | – |
| ClCCN(CCCl)c1ccc(CCCCCCNc2c3ccccc3nc3ccccc23)cc1 | – | 15 | – | – | 13.3 | 36 | 130 | 33900 | 530 | 22 | 157000 | – | – | – | – |
| CCN(CC)CCCC(C)Nc1c2ccc(Cl)cc2nc2ccc(OC)cc12 (stereo not drawn) [QUINACRINE] | – | 140 | – | – | – | 11.5 | – | – | 1700 | – | – | – | – | – | – |
| O=C(CCCCNc1c2ccccc2nc2ccccc12)Nc1ccc(N(CCCl)CCCl)cc1 | – | 80 | – | – | 45 | 11.3 | 3200 | 2900 | 900 | – | 2500 | 58 | – | – | – |
| O=S(=O)(CCCCCNc1c2ccccc2nc2ccccc12)c1ccc(N(CCCl)CCCl)cc1 | – | – | – | – | 45 | 1 | 640 | 2800 | – | – | 500 | 33 | 570 | 570 | – |
| ClCCN(CCCl)c1ccc(OCCCCCNc2c3ccccc3nc3ccccc23)cc1 | – | 5 | – | – | 20 | 46 | 40 | 100000 | 210 | – | 115000 | – | – | – | 28 |
| O=C(NCCCCNc1c2ccccc2nc2ccccc12)c1ccc(N(CCCl)CCCl)cc1 | – | 673 | – | – | 20 | 5.5 | 510 | 25700 | 3700 | – | 171000 | – | – | – | – |
| ClCCN(CCCl)c1ccc(SCCCCCNc2c3ccccc3nc3ccccc23)cc1 | – | 37 | – | – | 45 | 19 | 360 | 5900 | 710 | – | 16900 | 23 | – | – | – |
| O=C(CCCCCNc1c2ccccc2nc2ccccc12)c1ccc(N(CCCl)CCCl)cc1 | – | 593 | – | – | 65 | 5.9 | 330 | 1100 | 3510 | – | 1800 | – | – | – | – |
